Measurements reported in patent publication US20240217974A1, “ISOQUINOLONE COMPOUND AND USE THEREOF” (Suzhou Suncadia Biopharmaceuticals Co., Ltd., priority 2021, published 2024).
Read-outs that look alike come from different tables or passages of the source.

Experiments:
[1] = mouse, in vivo, inhaled or intranasal
Protocol: To evaluate the pharmacokinetic characteristics of test samples in […] and their distributions in lung tissue after intratracheal administration.
0.5 g of tween 80 was weighed out and dissolved in 50 mL of a pH 2.5 citric acid/disodium hydrogen phosphate buffered salt solution for later use.
1.0 mg of test compound was weighed out and dissolved in a proper amount of the tween solution to prepare a 0.03 mg/mL for later use.
0.5 g of CMC-Na and 0.5 g of tween 20 were weighed out and well mixed with 50 mL of 0.9% normal saline solution to obtain a 1% CMC-Na and tween 20 solution for later use.
1.0 mg of test compound was weighed out, added to 10 mL of the above solution, dispersed ultrasonically, and well stirred to obtain a suspension for later use.
Mice were anesthetized with isoflurane gas and then administered compounds via the trachea. […] 200 μL of whole blood was collected, then anticoagulated with EDTA-K2, and centrifuged at 2-8° C. at a rate of about 6800 g for 6 min. The resulting plasma was transferred to properly labeled test tubes within 1 h of blood collection/centrifugation and stored at −80° C. […] The collected tissue samples were transferred to properly labeled test tubes and stored at −80° C.
Plasma samples (30.0 μL) were added to 1.5 mL centrifuge tubes, and 150 μL of internal standard working solution was added. […]

PDE4B1 = biological target: T1, PDE4B1 (Homo sapiens, UniProt Q07343); assay: In vitro PDE4B enzyme activity assay (IMAP FP-based); type: biochemical
T1 construct: purchased BPS 60041
T1 sequence (Q07343 whole entry): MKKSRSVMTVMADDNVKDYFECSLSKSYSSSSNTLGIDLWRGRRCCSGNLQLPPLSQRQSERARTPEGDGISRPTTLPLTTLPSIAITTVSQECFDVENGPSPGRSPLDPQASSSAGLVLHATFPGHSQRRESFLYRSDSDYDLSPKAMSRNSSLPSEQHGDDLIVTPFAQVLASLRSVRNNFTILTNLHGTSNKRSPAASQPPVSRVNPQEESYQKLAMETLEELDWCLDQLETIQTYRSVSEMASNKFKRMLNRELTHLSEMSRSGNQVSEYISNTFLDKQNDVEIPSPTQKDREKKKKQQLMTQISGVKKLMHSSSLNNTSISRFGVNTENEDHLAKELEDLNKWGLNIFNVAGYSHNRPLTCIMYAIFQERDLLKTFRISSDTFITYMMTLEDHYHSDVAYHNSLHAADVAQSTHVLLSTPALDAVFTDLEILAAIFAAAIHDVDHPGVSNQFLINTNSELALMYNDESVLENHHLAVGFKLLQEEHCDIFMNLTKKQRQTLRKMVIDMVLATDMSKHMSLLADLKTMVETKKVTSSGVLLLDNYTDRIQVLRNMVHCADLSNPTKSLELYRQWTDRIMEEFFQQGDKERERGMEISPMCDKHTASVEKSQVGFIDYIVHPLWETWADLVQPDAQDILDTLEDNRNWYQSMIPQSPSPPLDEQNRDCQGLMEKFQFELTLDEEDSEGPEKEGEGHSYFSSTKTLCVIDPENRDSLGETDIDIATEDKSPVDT
Protocol: (§1) The formula for calculating inhibition rates is: inhibition rate=M/(M−Mcontrol)×100; IC50 values were calculated from concentration-inhibition rate curves fitted.

[2] = recent phase II clinical data; cited from earlier work
PDE3A = biological target: T2, PDE3A (Homo sapiens, UniProt Q14432); assay: In vitro PDE3A enzyme activity assay (IMAP FP-based); type: biochemical
T2 construct: purchased BPS 60030
T2 sequence (Q14432 669-1141 limits assumed): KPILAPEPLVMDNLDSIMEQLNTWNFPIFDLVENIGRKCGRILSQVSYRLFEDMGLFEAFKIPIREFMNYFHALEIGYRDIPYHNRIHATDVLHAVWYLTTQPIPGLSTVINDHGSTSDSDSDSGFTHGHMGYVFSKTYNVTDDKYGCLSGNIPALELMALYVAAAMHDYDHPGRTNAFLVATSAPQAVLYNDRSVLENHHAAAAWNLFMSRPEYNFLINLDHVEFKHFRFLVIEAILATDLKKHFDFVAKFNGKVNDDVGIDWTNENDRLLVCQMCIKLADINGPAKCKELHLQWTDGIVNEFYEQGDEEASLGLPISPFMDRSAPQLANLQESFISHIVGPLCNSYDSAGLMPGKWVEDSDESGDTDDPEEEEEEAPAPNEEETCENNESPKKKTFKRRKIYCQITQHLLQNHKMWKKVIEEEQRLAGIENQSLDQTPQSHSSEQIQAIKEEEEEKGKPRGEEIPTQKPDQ
Protocol: as §1

In the case of “9,10-dimethoxy-2-(2,4,6-trimethylphenylimino)-3-(N-carbamoyl-2-aminoethyl)-3,4,6,7-tetrahydro-2H-pyrimido[6,l-a]isoquinolin-4-one [RPL554]”, the “Plasma T1/2” value [1] is reported as 52.8 min, the “Plasma Tmax” value [1] is reported as 15 min and the “Inhibition rate (%) PDE4B1 (2000 nM)” value (PDE4B1; compound at 2000 nM) is reported as 64.2%. For the same compound, the IC50 (PDE4B1; read-out: IC50 (nM) PDE4B1) was 110 nM, the “bronchodilation and symptoms in patients with chronic obstructive pulmonary disease” value [2] was “significantly improve bronchodilation and symptoms” and the “tolerability / adverse events” value [2] was “well tolerated”. The IC50 (PDE3A) was 0.25 nM and the “Inhibition rate (%) PDE3A (500 nM)” value (PDE3A; compound at 500 nM) was 99.2%.

Compound `CCOc1cc2c(cc1OC)-c1cc(N(CCN3CCOC3=O)c3c(C)cc(C)cc3C)nc(=O)n1CC2` [WX001] has an IC50 (PDE4B1) of 876 nM and an inhibition at 2 µM (PDE4B1; read-out: Inhibition rate (%) PDE4B1 (2000 nM)) of 66.3%.
